In series [1] the test system is intracellular amastigote forms of T. cruzi. The series is described as follows: Activity against intracellular amastigote forms of T. cruzi in infected peritoneal macrophages (48 h). In kind it is cell-based. The conditions noted are these: Trypanosoma cruzi, Peritoneal macrophage, intracellular amastigotes in peritoneal macrophages, ± SD, NA: nonactive. The procedure: (§1) The trypomastigote forms of T. cruzi (Y strain) were maintained in culture using Rhesus monkey kidney cells (LLC-MK2, ATCC CCL-7). These cells were cultured in RPMI-1640 medium supplemented with 2% fetal bovine serum (FBS) and incubated at 37 °C in a humidified atmosphere containing 5% CO2. Mouse fibroblast cells (NCTC clone L929, ATCC) and LLC-MK2 cells were similarly maintained in RPMI-1640 medium supplemented with 10% FBS under identical incubation conditions (37 °C, 5% CO2). Peritoneal macrophages were isolated from BALB/c mice by peritoneal lavage using RPMI-1640 medium supplemented with 10% FBS, followed by incubation at 37 °C in a 5% CO2 humidified atmosphere. In addition, the human monocytic cell line THP-1 (ATCC TIB-202) was cultured in RPMI-1640 medium supplemented with 20% FBS and […] glutamine, and maintained at 37 °C in a humidified 5% CO2 environment.
The antiparasitic activity of compounds 1–6 against the intracellular amastigote forms of T. cruzi was assessed using an in vitro infection model with peritoneal macrophages. Macrophages were seeded in 16-well plates at a density of 1 × 10^5 cells per well and incubated at 37 °C in a humidified atmosphere containing 5% CO2 for 24 h to promote adherence. Cells were then infected with trypomastigotes for 2 h under the same conditions to allow parasite internalization. Following infection, noninternalized parasites were removed by washing with RPMI-1640 medium. The infected macrophages were subsequently treated with serial dilutions of compounds 1–6 (150.0–1.6 μM) and incubated for an additional 48 h at 37 °C in 5% CO2 to evaluate their antitrypanosomal efficacy. ,
(§2) The CC50 and EC50 values were obtained from sigmoid dose–response curves using Graph-Pad Prims 6.0 software. All samples were tested in triplicate.

Series [2] deals with T. cruzi trypomastigotes (Y strain). The series is described as follows: Anti-T. cruzi activity against trypomastigote forms (resazurin reduction assay, 24 h). In kind it is cell-based. To be noted: Trypanosoma cruzi, ± SD. The procedure: as §1
Compounds 1–6 were initially dissolved in DMSO and subsequently diluted in RPMI-1640 medium to the desired concentrations before being dispensed into 96-well microplates. T. cruzi trypomastigotes were then added at a density of 1 × 10^6 parasites per well. The plates were incubated for 24 h at 37 °C in a humidified atmosphere containing 5% CO2. Following incubation, the 50% effective concentration (EC50) was determined using the resazurin reduction assay. Absorbance readings were acquired at 570 nm using a microplate spectrophotometer (FilterMax F5). Untreated parasites served as the negative control, while benznidazole, a standard reference drug, was used as the positive control.
as §2

A short description of series [3]: Mammalian cytotoxicity, MTT assay (48 h). The format is cell-based. The conditions noted are these: mouse. As for the experimental part:
as §1
The cytotoxicity of compounds 1–6 was assessed using NCTC (clone L929) cell line. NCTC cells (6 × 10^4 cells/well) were seeded into 96-well plates and treated with serial dilutions of the test compounds prepared in RPMI-1640 medium supplemented with 10% fetal bovine serum (FBS). Following a 48-h incubation at 37 °C in a humidified atmosphere with 5% CO2, cell viability was determined using the MTT colorimetric assay. The 50% cytotoxic concentration (CC50) was calculated based on absorbance measurements at 570 nm using a FilterMax F5 microplate reader (Molecular Devices).
as §2

For a further series, the system named is Leishmania infantum. More on the design: method as in previous study by our group. The conditions noted are these: after a short incubation period; ref previous study by our group; cited from earlier work.
[4] abbreviates: NCTC clone L929 fibroblast cells.

For `CC(C)=CCC[C@@H](C)C1=CC(=O)[C@@](C)(O)CC1` (relative stereo) [Compound 1, rel-(3S,7R)-3-hydroxy-bisabola-1(6),10-dien-2-one], the results for the EC50 in series [1] and in series [2] were 6.7 ± 3.8 µM and 38.5 ± 2.7 µM, respectively. This compound showed a 50% cytotoxic concentration (CC50) at 48 h in series [3] (setting [4]) above 200 µM.

Turning to `CC(C)=CCC[C@@H](C)C1=C[C@H](O)[C@@](C)(O)CC1` (relative stereo) [Compound 2, rel-(2S,3S,7R)-bisabola-1(6),10-diene-2,3-diol], the concentration giving a half-maximal response (EC50) in series [1] stood at 24.2 ± 4.4 µM; in series [2] it was 88.3 ± 6.5 µM. Further, in series [3] (setting [4]), the half-maximal cytotoxic concentration (CC50) at 48 h was above 200 µM.

In series [2], `CC(C)=CCC[C@@H](C)[C@]12C=C[C@](C)(CC1)OO2` (relative stereo) [Compound 3, rel-(3S,6R,7R)-3,6-epidioxy-1,10-bisaboladiene] came in with an EC50 of 65.5 ± 5.4 µM. In series [3] (setting [4]), this compound yielded a CC50 at 48 h above 200 µM.

For the compound `CC(C)=CCC[C@@H](C)c1ccc(C)cc1` [Compound 4, α-curcumene], the EC50 amounted to 4.9 ± 0.1 µM in series [1] and 20.5 ± 1.6 µM in series [2]. The CC50 at 48 h in series [3] (setting [4]) was above 200 µM.

Take `CC1(C)CCC[C@]2(C)[C@@H](C=O)C(C=O)=CC[C@@H]12` [Compound 5, polygodial]: in the series with Leishmania infantum, the “ultrastructural damage to Leishmania” value is “intense mitochondrial swelling”. Further, the EC50 in series [1] is 3.5 ± 0.2 µM; in series [2], 3.8 ± 3.1 µM. The compound also showed a cytotoxic concentration (CC50) at 48 h in series [3] (setting [4]) above 200 µM.

Turning to `C=C1[C@@H](C)CC[C@]2(C)[C@@H](C=O)C(C=O)=CC[C@@H]12` [Compound 6, 9-deoxymuzigadial], the values for the EC50 in series [1] and in series [2] were 3.1 ± 0.1 µM and 5.9 ± 0.9 µM, respectively. Also, in series [3] (NCTC clone L929 cells), the 50% cytotoxic concentration (CC50) at 48 h is above 200 µM.

As for `O=C(Cn1ccnc1[N+](=O)[O-])NCc1ccccc1` [benznidazole, reference compound], the concentration giving a half-maximal response (EC50) in series [1] came out at 5.5 ± 2.2 µM; in series [2], 17.4 ± 1.8 µM. Besides, the 50% cytotoxic concentration (CC50) at 48 h in series [3] (setting [4]) is above 200 µM.

The values above are taken from PMC12613110, “Anti-Trypanosoma cruzi Effects of Sesquiterpenoids from Branches of Drimys brasiliensis (Winteraceae)” (ACS Omega, 2025).
